In publication PMC10010643 (Cancer Chemotherapy and Pharmacology, 2023):
Where two headings read alike, the source gives them in different places.

Legend:
[1] = Maximum recommended starting dose in humans from preclinical studies; design: species or system human
Method: A starting dose of 5 mg was chosen as this was approximately twofold lower than the maximum recommended starting dose (MRSD) in humans of 9.6 mg determined from the results of a murine PD study, and was therefore not expected to have any pharmacological activity. This dose was also more than 30-fold lower than the MRSD of 162 mg calculated from the no observed adverse effect level in the toxicology species (mouse and dog).

[2] = system: human liver stellate cell line; design: method as in PMID 36154172; conditions: in vitro; cited from earlier work
human macrophages = system: human macrophages; design: method as in PMID 36154172; conditions: in vitro; cited from earlier work
[3] = design: method as in PMID 36154172; conditions: in mice; cited from earlier work
liver fibrosis = system: liver fibrosis; design: method as in PMID 36154172; conditions: CCl4-induced; cited from earlier work
[4] = Urine PK, Part A single oral doses in healthy participants; type: in vivo, human; conditions: for CL renal: human
Method: A further two cohorts were recruited. […] Each individual participated in one treatment period only, with the exception of the food-effect cohort (cohort A3) in which there were two treatment periods separated by at least 7 days washout. Participants resided at the Clinical Research Unit (CRU) from 1 day ahead of dosing (day − 1) to day 3 and returned for a follow-up visit 5–7 days after their final dose. For all cohorts, doses were administered in the fasted state in the morning of day 1 of Treatment Period 1. In the food-effect cohort, doses were given 30 min after the start of a high-fat breakfast (973 calories total: approximately 150 protein calories, 250 carbohydrate calories, and 500–600 fat calories) on day 1 of Treatment Period 2. For cohorts A1 to A5 in Treatment Period 1, dosing occurred such that one pair (one active and one placebo) were dosed at least 24 h before the remaining participants. Continuation to dose those who remained was at the investigator’s discretion. Escalating doses were administered following satisfactory sponsor and investigator review of the safety and tolerability data (up to 48 h post-final dose) and PK data (up to 24 h post-final dose) from the lower dose levels.
Urine was collected by spot collection in Part A only before dosing and between 0–6, 6–12, 12–24, and 24–48 h post-dose. Blood and urine aliquots were stored in polypropylene tubes at − 70 °C until bioanalysis.
Noncompartmental PK analysis was performed on individual plasma and urine concentration data, using Phoenix® WinNonlin® 8.1 software (Certara USA Inc., Princeton NJ). Plasma PK parameter endpoints for Part A included area under the plasma concentration–time curve (AUC) from time 0 to infinity (AUC0–∞), AUC from time 0 to the time of the last quantifiable concentration (AUC0–tlast), maximum observed plasma concentration (Cmax), time of the maximum observed plasma concentration (Tmax), terminal half-life in plasma (t½), apparent total plasma clearance (CL/F), and apparent volume of distribution (Vz/F). Urine PK parameters calculated in Part A included amount of drug excreted in urine (Ae), percentage of dose excreted unchanged in urine (fe) and renal clearance (CLR).

[5] = single dose 5 mg (1 × 5 mg), fasted
[6] = single dose 20 mg (4 × 5 mg), fasted
[7] = single dose 50 mg (1 × 50 mg), fasted
[8] = single dose 50 mg (1 × 50 mg), fed
[9] = single dose 50 mg (10 × 5 mg), fasted
[10] = single dose 100 mg (2 × 50 mg), fasted
[11] = single dose 200 mg (4 × 50 mg), fasted
[12] = single dose 400 mg (8 × 50 mg), fasted

SMILES: OC[C@H]1O[C@H](Sc2cncc(Br)c2)[C@H](O)[C@@H](n2cc(-c3cc(F)c(F)c(F)c3)nn2)[C@H]1O [GB1211]
- Maximum recommended starting dose (MRSD) ([1]; calculated from the no observed adverse effect level in the toxicology species (mouse and dog)): 162 mg
- Maximum recommended starting dose (MRSD) in humans ([1]; determined from the results of a murine PD study): 9.6 mg
- TGFβ-induced fibrosis gene expression [2]: inhibiting TGFβ-induced fibrosis gene expression
- Galectin-3 expression on human macrophages (human macrophages): potently inhibited galectin-3 expression
- Oral bioavailability [3]: 68%
- Fibrosis in vivo, liver (liver fibrosis): reducing fibrosis
- Geometric mean fe(0–48 h), range across doses ([4]; 5–50 mg dose range (5 mg capsule)): 26.8–30.0%
- Geometric mean fe(0–48 h), range across doses ([4]; 50–400 mg dose range (50 mg capsules; fasted state)): 10.5–18.7%
- Renal elimination mechanism ([4]; CLR greater than GFR corrected for fu): undergoes active secretion in the kidney
- Glomerular filtration rate corrected for the fraction of unbound GB1211 in plasma ([4]; GFR approximately 7.5 L/h, fu 5.34%): approximately 0.4 L/h
- CL renal ([4]; urine and plasma, po, single oral dose, read-out: Geometric mean CLR, range across all doses): 30.5 to 44.5 mL/min
- CL renal ([4]; urine, oral, 5 mg, single dose 5 mg (1 × 5 mg), fasted, read-out: CLR, geometric mean (CV%) (converted)): 35.3 mL/min
- CL renal ([4]; urine, oral, 20 mg, single dose 20 mg (4 × 5 mg), fasted, read-out: CLR, geometric mean (CV%) (converted)): 31.7 mL/min
- CL renal ([4]; urine, oral, 50 mg, single dose 50 mg (1 × 50 mg), fasted, read-out: CLR, geometric mean (CV%) (converted)): 37.3 mL/min
- CL renal ([4]; urine, oral, 50 mg, single dose 50 mg (1 × 50 mg), fed, read-out: CLR, geometric mean (CV%) (converted)): 36.7 mL/min
- CL renal ([4]; urine, oral, 50 mg, single dose 50 mg (10 × 5 mg), fasted, read-out: CLR, geometric mean (CV%) (converted)): 32.3 mL/min
- CL renal ([4]; urine, oral, 100 mg, single dose 100 mg (2 × 50 mg), fasted, read-out: CLR, geometric mean (CV%) (converted)): 43.2 mL/min
- CL renal ([4]; urine, oral, 200 mg, single dose 200 mg (4 × 50 mg), fasted, read-out: CLR, geometric mean (CV%) (converted)): 30.5 mL/min
- CL renal ([4]; urine, oral, 400 mg, single dose 400 mg (8 × 50 mg), fasted, read-out: CLR, geometric mean (CV%) (converted)): 44.5 mL/min
- Ae (0–48 h), geometric mean (CV%) [4, 5]: 1.43 (27.0) mg
- fe (0–48 h), geometric mean (CV%) [4, 5]: 28.7 (27.0) %
- Ae (0–48 h), geometric mean (CV%) [4, 6]: 6.00 (19.7) mg
- fe (0–48 h), geometric mean (CV%) [4, 6]: 30.0 (19.7) %
- Ae (0–48 h), geometric mean (CV%) [4, 7]: 9.34 (44.1) mg
- fe (0–48 h), geometric mean (CV%) [4, 7]: 18.7 (44.1) %
- Ae (0–48 h), geometric mean (CV%) [4, 8]: 10.9 (33.5) mg
- fe (0–48 h), geometric mean (CV%) [4, 8]: 21.7 (33.5) %
- Ae (0–48 h), geometric mean (CV%) [4, 9]: 13.4 (38.7) mg
- fe (0–48 h), geometric mean (CV%) [4, 9]: 26.8 (38.7) %
- Ae (0–48 h), geometric mean (CV%) [4, 10]: 15.3 (34.8) mg
- fe (0–48 h), geometric mean (CV%) [4, 10]: 15.3 (34.8) %
- Ae (0–48 h), geometric mean (CV%) [4, 11]: 21.0 (28.0) mg
- fe (0–48 h), geometric mean (CV%) [4, 11]: 10.5 (28.0) %
- Ae (0–48 h), geometric mean (CV%) [4, 12]: 50.7 (33.6) mg
- fe (0–48 h), geometric mean (CV%) [4, 12]: 12.7 (33.6) %
